Assay results published in patent US12378224B2 (Dong-A Socio Holdings Co., Ltd., priority 2016, dated 2025).

target: human MER (528-end) (Homo sapiens (Human), UniProt Q12866); assay: HTRF Kinase Activity Biochemical Assay (KinEASE-TK); settings: 10 uM ATP
Description: For the SAR (structure-activity relationship) and compound screening, HTRF (Homogeneous Time Resolved Fluorescence) kinase activity assay was employed for all MER, AXL and TYRO3 kinases using Cisbio HTRF® KinEASE™-TK kit (Cisbio, USA). The kit includes biotin-labeled TK substrate, streptavidin-XL665, Eu3+-cryptate-labeled TK antibody and HTRF® Detection buffer. There are two main steps in the kinase assay: kinase reaction and detection of phosphorylated substrate. The reaction was carried out in white low volume 384-well plate (Corning, USA) with 25 nL compound in dimethyl sulfoxide in each well. […] Then the reaction was stopped after 1 hour incubation at room temperature by adding 5 uL of HTRF® Detection buffer which also contains 0.375 nM Eu3+-cryptate-labeled TK antibody and 0.062 uM streptavidin-XL665(SA-XL665) to allow for detection of the phosphorylated peptide product. After 1 h incubation at room temperature, the fluorescence intensity was measured with Envision™ plate reader (PerkinElmer, USA). Upon excitation at 340 nm by UV, the energy from Eu3+ donor of the antibody is transferred to the FRET acceptor XL665, and […] emits light at 665 nm. The level of kinase activity was quantified by the HTRF ratio that calculated from the intensity of emission at 665 nm and emission at 620 nm (fluorescence intensity @ 665 nm/fluorescence intensity @ 620 nm×10,000). The recombinant protein of human MER (528-end) was purchased from Carnabio, Japan. The recombinant human AXL (473-end) and TYRO3 (455-end) were purchased from SignalChem, Canada.

Sequence of human MER (528-end) (Q12866 528-999 limits assumed): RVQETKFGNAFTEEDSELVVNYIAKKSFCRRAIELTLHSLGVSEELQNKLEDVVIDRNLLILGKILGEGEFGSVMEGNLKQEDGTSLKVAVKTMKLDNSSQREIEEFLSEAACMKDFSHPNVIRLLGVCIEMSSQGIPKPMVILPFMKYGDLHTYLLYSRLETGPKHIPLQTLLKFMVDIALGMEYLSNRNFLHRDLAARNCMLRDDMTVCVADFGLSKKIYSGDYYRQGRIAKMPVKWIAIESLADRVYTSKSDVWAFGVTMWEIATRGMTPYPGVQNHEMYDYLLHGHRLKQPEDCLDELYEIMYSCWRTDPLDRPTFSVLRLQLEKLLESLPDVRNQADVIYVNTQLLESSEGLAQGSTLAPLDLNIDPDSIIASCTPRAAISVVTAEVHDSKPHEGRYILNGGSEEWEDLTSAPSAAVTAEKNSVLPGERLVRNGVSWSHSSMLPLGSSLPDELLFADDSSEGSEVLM

Molecule | IC50
2-amino-N—((R)-1-(3-(((R)-2-(hydroxymethyl)pyrrolidin-1-yl)methyl)-[1,1′-biphenyl]-3-carbonyl)pyrrolidin-3-yl)-5-(1-methyl-1H-pyrazol-4-yl)nicotinamide [Example 462] | > 1000 nM
Cn1cc(-c2cncc(C(=O)N[C@@H]3CCN(C(=O)Nc4cc(Cl)cc(Cl)c4)C3)c2)cn1 [Example 22, (R)—N-(1-((3,5-dichlorophenyl)carbamoyl)pyrrolidin-3-yl)-5-(1-methyl-1H-pyrazol-4-yl)nicotinamide] | > 1000 nM
Cn1cc(-c2cnc(N)c(C(=O)N[C@@H]3CCN(C(=O)Nc4ccc(Br)cc4)C3)c2)cn1 [Example 25, (R)-2-amino-N-(1-((4-bromophenyl)carbamoyl)pyrrolidin-3-yl)-5-(1-methyl-1H-pyrazol-4-yl)nicotinamide] | > 1000 nM
Cn1cc(-c2cnc(N)c(C(=O)N[C@@H]3CCN(C(=O)Nc4cccc(CN5CCOCC5)c4)C3)c2)cn1 [Example 26, (R)-2-amino-5-(1-methyl-1H-pyrazol-4-yl)-N-(1-((3-(morpholinomethyl)phenyl)carbamoyl)pyrrolidin-3-yl)nicotinamide] | > 1000 nM
Cn1cc(-c2cnc(N)c(C(=O)N[C@H]3CCN(C(=O)Nc4ccccc4)C3)c2)cn1 [Example 27, (S)-2-amino-5-(1-methyl-1H-pyrazol-4-yl)-N-(1-(phenylcarbamoyl)pyrrolidin-3-yl)nicotinamide] | > 1000 nM
Cn1cc(-c2cnc(N)c(C(=O)N[C@@H]3CCN(C(=O)N4CCc5c(N)cccc5C4)C3)c2)cn1 [Example 28, (R)-2-amino-N-(1-(5-amino-1,2,3,4-tetrahydroisoquinoline-2-carbonyl)pyrrolidin-3-yl)-5-(1-methyl-1H-pyrazol-4-yl)nicotinamide] | > 1000 nM
Cn1cc(-c2cnc(N)c(C(=O)N[C@@H]3CCN(C(=O)N4CCc5cccc(Br)c5C4)C3)c2)cn1 [Example 29, (R)-2-amino-N-(1-(8-bromo-1,2,3,4-tetrahydroisoquinoline-2-carbonyl)pyrrolidin-3-yl)-5-(1-methyl-1H-pyrazol-4-yl)nicotinamide] | > 1000 nM
Cn1cc(-c2cnc(N)c(C(=O)N[C@@H]3CCN(C(=O)N[C@@H]4CCCC[C@@H]4O)C3)c2)cn1 [Example 31, 2-amino-N—((R)-1-(((1R,2S)-2-hydroxycyclohexyl)carbamoyl)pyrrolidin-3-yl)-5-(1-methyl-1H-pyrazol-4-yl)nicotinamide] | > 1000 nM
Cn1cc(-c2cnc(N)c(C(=O)N[C@@H]3CCN(C(=O)N[C@@H]4CCCC[C@H]4O)C3)c2)cn1 [Example 32, 2-amino-N—((R)-1-(((1R,2R)-2-hydroxycyclohexyl)carbamoyl)pyrrolidin-3-yl)-5-(1-methyl-1H-pyrazol-4-yl)nicotinamide] | > 1000 nM
Cn1cc(-c2cnc(N)c(C(=O)N[C@@H]3CCN(C(=O)N[C@H]4CCC[C@@H]4OCc4ccccc4)C3)c2)cn1 [Example 40, 2-amino-N—((R)-1-(((1S,2S)-2-(benzyloxy)cyclopentyl)carbamoyl)pyrrolidin-3-yl)-5-(1-methyl-1H-pyrazol-4-yl)nicotinamide] | > 1000 nM
Cn1cc(-c2cnc(N)c(C(=O)N[C@@H]3CCN(C(=O)NC4CCC(OCc5ccccc5)C4)C3)c2)cn1 (stereo partly drawn) [Example 41, 2-amino-N-((3R)-1-((3-(benzyloxy)cyclopentyl)carbamoyl)pyrrolidin-3-yl)-5-(1-methyl-1H-pyrazol-4-yl)nicotinamide] | > 1000 nM
Cn1cc(-c2cnc(N)c(C(=O)N[C@@H]3CCN(C(=S)Nc4ccc(F)cc4)C3)c2)cn1 [Example 42, (R)-2-amino-N-(1-((4-fluorophenyl)carbamothioyl)pyrrolidin-3-yl)-5-(1-methyl-1H-pyrazol-4-yl)nicotinamide] | > 1000 nM
Cn1cc(-c2cnc(N)c(C(=O)N[C@@H]3CCN(C(=S)NCc4ccccc4)C3)c2)cn1 [Example 43, (R)-2-amino-N-(1-(benzylcarbamothioyl)pyrrolidin-3-yl)-5-(1-methyl-1H-pyrazol-4-yl)nicotinamide] | > 1000 nM

Other lines, results leading:

IC50 | Molecule
> 1000 nM | Cn1cc(-c2cnc(N)c(C(=O)N[C@@H]3CCN(C(=O)Nc4cccc(F)c4)C3)c2)cn1 [Example 2, (R)-2-amino-N-(1-((3-fluorophenyl)carbamoyl)pyrrolidin-3-yl)-5-(1-methyl-1H-pyrazol-4-yl)nicotinamide]
> 1000 nM | Cn1cc(-c2cnc(N)c(C(=O)N[C@@H]3CCN(C(=O)Nc4ccc(F)c(F)c4)C3)c2)cn1 [Example 3, (R)-2-amino-N-(1-((3,4-difluorophenyl)carbamoyl)pyrrolidin-3-yl)-5-(1-methyl-1H-pyrazol-4-yl)nicotinamide]
> 1000 nM | Cc1cc(C)cc(NC(=O)N2CC[C@@H](NC(=O)c3cc(-c4cnn(C)c4)cnc3N)C2)c1 [Example 4, (R)-2-amino-N-(1-((3,5-dimethylphenyl)carbamoyl)pyrrolidin-3-yl)-5-(1-methyl-1H-pyrazol-4-yl)nicotinamide]
> 1000 nM | Cn1cc(-c2cnc(N)c(C(=O)N[C@@H]3CCN(C(=O)Nc4cc(C(F)(F)F)cc(C(F)(F)F)c4)C3)c2)cn1 [Example 5, (R)-2-amino-N-(1-((3,5-bis(trifluoromethyl)phenyl)carbamoyl)pyrrolidin-3-yl)-5-(1-methyl-1H-pyrazol-4-yl)nicotinamide]
> 1000 nM | Cn1cc(-c2cnc(N)c(C(=O)N[C@@H]3CCN(C(=O)Nc4ccc(C(F)(F)F)cc4)C3)c2)cn1 [Example 6, (R)-2-amino-5-(1-methyl-1H-pyrazol-4-yl)-N-(1-((4-(trifluoromethyl)phenyl)carbamoyl)pyrrolidin-3-yl)nicotinamide]
> 1000 nM | CC(C)NC(=O)N1CC[C@@H](NC(=O)c2cc(-c3cnn(C)c3)cnc2N)C1 [Example 8, (R)-2-amino-N-(1-(isopropylcarbamoyl)pyrrolidin-3-yl)-5-(1-methyl-1H-pyrazol-4-yl)nicotinamide]
> 1000 nM | Cn1cc(-c2cnc(N)c(C(=O)N[C@@H]3CCN(C(=O)Nc4ccn(C)n4)C3)c2)cn1 [Example 12, (R)-2-amino-N-(1-((1-methyl-1H-pyrazol-3-yl)carbamoyl)pyrrolidin-3-yl)-5-(1-methyl-1H-pyrazol-4-yl)nicotinamide]
> 1000 nM | Cn1cc(-c2cnc(N)c(C(=O)N[C@@H]3CCN(C(=O)Nc4cccc(Cl)c4)C3)c2)cn1 [Example 14, (R)-2-amino-N-(1-((3-chlorophenyl)carbamoyl)pyrrolidin-3-yl)-5-(1-methyl-1H-pyrazol-4-yl)nicotinamide]
> 1000 nM | CC(C)Oc1cccc(NC(=O)N2CC[C@@H](NC(=O)c3cc(-c4cnn(C)c4)cnc3N)C2)c1 [Example 16, (R)-2-amino-N-(1-((3-isopropoxyphenyl)carbamoyl)pyrrolidin-3-yl)-5-(1-methyl-1H-pyrazol-4-yl)nicotinamide]
10 to 100 nM | Cn1cc(-c2cnc(N)c(C(=O)N[C@@H]3CCN(C(=O)Nc4cccc(Oc5ccccc5)c4)C3)c2)cn1 [Example 17, (R)-2-amino-5-(1-methyl-1H-pyrazol-4-yl)-N-(1-((3-phenoxyphenyl)carbamoyl)pyrrolidin-3-yl)nicotinamide]
> 1000 nM | Cn1cc(-c2cnc(N)c(C(=O)N[C@@H]3CCN(C(=O)Nc4ccccc4Oc4ccccc4)C3)c2)cn1 [Example 18, (R)-2-amino-5-(1-methyl-1H-pyrazol-4-yl)-N-(1-((2-phenoxyphenyl)carbamoyl)pyrrolidin-3-yl)nicotinamide]
> 1000 nM | CCc1cccc(NC(=O)N2CC[C@@H](NC(=O)c3cc(-c4cnn(C)c4)cnc3N)C2)c1 [Example 19, (R)-2-amino-N-(1-((3-ethylphenyl)carbamoyl)pyrrolidin-3-yl)-5-(1-methyl-1H-pyrazol-4-yl)nicotinamide]
> 1000 nM | Cn1cc(-c2cnc(N)c(C(=O)N[C@@H]3CCN(C(=O)Nc4ccccc4Cl)C3)c2)cn1 [Example 21, (R)-2-amino-N-(1-((2-chlorophenyl)carbamoyl)pyrrolidin-3-yl)-5-(1-methyl-1H-pyrazol-4-yl)nicotinamide]
100 to 1000 nM | Cn1cc(-c2cnc(N)c(C(=O)N[C@@H]3CCN(C(=O)Nc4cccc(-c5ccccc5)c4)C3)c2)cn1 [Example 23, (R)—N-(1-([1,1′-biphenyl]-3-ylcarbamoyl)pyrrolidin-3-yl)-2-amino-5-(1-methyl-1H-pyrazol-4-yl)nicotinamide]
100 to 1000 nM | Cn1cc(-c2cnc(N)c(C(=O)N[C@@H]3CCN(C(=O)NC4CCCCC4)C3)c2)cn1 [Example 30, (R)-2-amino-N-(1-(cyclohexylcarbamoyl)pyrrolidin-3-yl)-5-(1-methyl-1H-pyrazol-4-yl)nicotinamide]
100 to 1000 nM | Cn1cc(-c2cnc(N)c(C(=O)N[C@@H]3CCN(C(=O)Nc4cc(Cl)cc(Cl)c4)C3)c2)cn1 [Example 34, (R)-2-amino-N-(1-((3,5-dichlorophenyl)carbamoyl)pyrrolidin-3-yl)-5-(1-methyl-1H-pyrazol-4-yl)nicotinamide]
10 to 100 nM | Nc1ncc(-c2ccc(CN3CCOCC3)cc2)cc1C(=O)N[C@@H]1CCN(C(=O)Nc2cccc(-c3ccccc3)c2)C1 [Example 38, (R)—N-(1-([1,1′-biphenyl]-3-ylcarbamoyl)pyrrolidin-3-yl)-2-amino-5-(4-(morpholinomethyl)phenyl)nicotinamide]
